Data taken from patent US9938230B2, “Esters or salts of 2-hydroxy-4-propylcyclohepta-2,4,6-trienone and application thereof in preparation of animal antibacterial agents and growth promoters used in feed” (GUANGZHOU INSIGHTER BIOTECHNOLOGY CO., LTD., priority 2014, dated 2018).

What was measured:
[1] = Optical stability test of different metal salts, 2% premix, illumination at 4500-5000 lux for 5 days, HPLC; type: physicochemical; details: for Residual content of 5 days later (%): 2% premix; for Initial content (%): 2% premix with corncob powder, before illumination
Procedure: Samples (the premixes) were spread in a stability test chamber and subjected to illumination at 4500-5000 lux for 5 days. Then 1.0 g of each of the samples (three duplicate samples from each sample) and 50 ml of ethanol were added into a conical flask, subjected to sonication for 10 min, and then filtrated through filter paper. The filtrate was transferred into a 50 ml volumetric flask, topped up to the final volume with ethanol, and then filtered with a 0.45 μm microporous membrane and subjected to HPLC analysis. Column: WondasilC18 (250 mm×4.6 mm, 5 μm); Mobile Phase: methanol/40 mM ammonium acetate (65:35, v/v; pH 4): Detection Wavelength: 220 nm; Column Temperature: 25° C.; […] Flow Rate: 0.8 or 1.0 ml/min.

[2] = Thermal stability test of different metal salts, 2% premix with corncob powder at 100° C., HPLC; type: physicochemical; details: for Residual content at 100° C. for 20 h (%) / Residual content at 100° C. for 40 h (%): 2% premix; for Initial content (%): 2% premix with corncob powder, before heating; for Residual content at 100° C. for 20 h (%) / Residual content at 100° C. for 40 h (%) / thermal stability (in words): 100° C.; for thermal stability (in words): compared with IST-009-001
Procedure: (§1) Each of the metal salts of 2-hydroxy-4-propylcyclohepta-2,4,6-trienone prepared in Embodiments 2-6 was mixed with corncob powder to obtain a premix with a mass fraction of 2%. Samples (the premix) were placed in crucibles and spread, and then placed in oven at 100° C. for different durations. Then 1.0 g of each of the samples (three duplicate samples from each sample) and 50 ml of ethanol were added into a conical flask, subjected to sonication for 10 min, and then filtrated through filter paper. The filtrate was transferred into a 50 ml volumetric flask, topped up to the final volume with ethanol, and then filtered with a 0.45 μm microporous membrane and subjected to HPLC analysis.
(§2) Chromatographic Parameters
(§3) Column: Wondasil C18 (250 mm×4.6 mm, 5 μm);
Mobile phase: methanol/40 mM ammonium acetate (65:35, v/v; pH 4):
(§4) Detection Wavelength: 220 nm;
(§5) Column Temperature: 25° C.;
(§6) Flow Rate: 0.8 or 1.0 ml/min.

[3] = Thermal stability test of 7-oxo-3-propylcyclohepta-1,3,5-trien-1-yl stearate, 2% premix with corncob powder in oven, HPLC; type: physicochemical
Procedure: as §1, with “The” for “Each of the metal salts of 2-hydroxy-4-propylcyclohepta-2,4,6-trienone”, “7-oxo-3-propylcyclohepta-1,3,5-trien-1-yl stearate (IST-009-050)” for “in Embodiments 2-6”, “60°” for “100°”, “C. or eat” for “C.”
as §2, §3
Mobile Phase: acetonitrile (100%);
as §4, §5, §6

[4] = tested on: yellow feather broilers (female); assay: Application in broiler feeds, 30 days test period, weight gain and feed conversion; type: in vivo; details: for Average daily weight gain / Average weight gain / Feed conversion efficiency / Consumption: 30 days; for Consumption: group of 100 broilers
Source text: 500 1-day-aged, healthy, fast-grown yellow feather broilers (female) in the same growing state and similar in weight were randomly divided into five groups according to table 4, 100 broilers in each group. Broilers of each group were fed with different dosages of magnesium 7-oxo-3-propylcyclohepta-1,3,5-trienolate or 2-hydroxy-4-propylcyclohepta-2,4,6-trienone.

[5] = 2.5 ppm mixed with feed, broilers
[6] = 5.0 ppm mixed with feed, broilers

## CCCc1cccc(=O)c(O)c1 [Calcium 7-oxo-3-propylcyclohepta-1,3,5-trienolate]
[1]; 4500-5000 lux, 5 days
  Residual content of 5 days later (%): 0.89%
[2]
  Residual content at 100° C. for 20 h (%): 1.73%
  Residual content at 100° C. for 40 h (%): 1.67%

## CCCc1cccc(=O)c(O)c1 [IST-009-001, 2-hydroxy-4-propylcyclohepta-2,4,6-trienone]
[1]
  Initial content (%): 2.0%
[1]; 4500-5000 lux, 5 days
  Residual content of 5 days later (%): 0%
[3]; 2% premix, 80° C., 22 h
  Content (%): 0%
[3]; 2% premix, 80° C., 44 h
  Content (%): 0%
[3]; 2% premix, 80° C., 68 h
  Content (%): 0%
[4]; [5]
  Average daily weight gain: 26.1 g
  Average weight gain: 783 g
  Feed conversion efficiency: 1.988
[4]; 2.5 ppm mixed with feed
  Consumption: 156.66 kg
[4]; [6]
  Average daily weight gain: 26.8 g
  Average weight gain: 804 g
  Feed conversion efficiency: 1.906
[4]; 5.0 ppm mixed with feed
  Consumption: 153.24 kg
[2]
  Initial content (%): 2.0%
  Residual content at 100° C. for 20 h (%): 0%
  Residual content at 100° C. for 40 h (%): 0%

## CCCCCCCCCCCCCCCCCC(=O)Oc1cc(CCC)cccc1=O [IST-009-050, 7-oxo-3-propylcyclohepta-1,3,5-trien-1-yl stearate]
[3]; 2% premix with corncob powder, before heating (no temperature, no time)
  Content (%): 2.0%
[3]; 2% premix, 60° C., 22 h
  Content (%): 0.84%
[3]; 2% premix, 60° C., 44 h
  Content (%): 0.35%
[3]; 2% premix, 60° C., 68 h
  Content (%): 0.14%
[3]; 2% premix, 80° C., 22 h
  Content (%): 0.61%
[3]; 2% premix, 80° C., 44 h
  Content (%): 0.03%
[3]; 2% premix, 80° C., 68 h
  Content (%): 0%
[3]; compared with IST-009-001
  thermal stability (in words): better than the unesterified 2-hydroxy-4-propylcyclohepta-2,4,6-trienone (IST-009-001), but not satisfactory yet

## CCCc1cccc(=O)c(O)c1 [Magnesium 7-oxo-3-propylcyclohepta-1,3,5-trienolate]
[1]; 4500-5000 lux, 5 days
  Residual content of 5 days later (%): 1.52%
[4]; [5]
  Average daily weight gain: 26.2 g
  Average weight gain: 785 g
  Feed conversion efficiency: 1.984
[4]; 2.5 ppm mixed with feed
  Consumption: 155.94 kg
[4]; [6]
  Average daily weight gain: 26.6 g
  Average weight gain: 798 g
  Feed conversion efficiency: 1.899
[4]; 5.0 ppm mixed with feed
  Consumption: 151.54 kg
[4]; broilers, 30 days test period
  feed conversion efficiency (in words): significantly improved
  weight gain (in words): significantly improved
[2]
  Residual content at 100° C. for 40 h (%): 1.99%

## CCCc1cccc(=O)c(O)c1 [Manganese 7-oxo-3-propylcyclohepta-1,3,5-trienolate]
[1]; 4500-5000 lux, 5 days
  Residual content of 5 days later (%): 1.96%
  optical stability (in words): most significant
[2]
  Initial content (%): 2.0%
  Residual content at 100° C. for 20 h (%): 1.99%
  Residual content at 100° C. for 40 h (%): 1.98%
  thermal stability (in words): highest thermal stability

## CCCc1cccc(=O)c(O)c1 [magnesium 7-oxo-3-propylcyclohepta-1,3,5-trienolate]
[2]
  thermal stability (in words): highest thermal stability

## CCCc1cccc(=O)c([O-])c1.[K+] [potassium 7-oxo-3-propylcyclohepta-1,3,5-trienolate]
[1]
  Initial content (%): 2.0%
[1]; 4500-5000 lux, 5 days
  Residual content of 5 days later (%): 0.17%
[2]
  Initial content (%): 2.0%
  Residual content at 100° C. for 20 h (%): 1.43%
  Residual content at 100° C. for 40 h (%): 1.13%

## CCCc1cccc(=O)c([O-])c1.[Na+] [sodium 7-oxo-3-propylcyclohepta-1,3,5-trienolate]
[1]
  Initial content (%): 2.0%
[1]; 4500-5000 lux, 5 days
  Residual content of 5 days later (%): 0.05%
[2]
  Initial content (%): 2.0%
  Residual content at 100° C. for 20 h (%): 1.31%
  Residual content at 100° C. for 40 h (%): 1.11%
